pIC50: −log10 of the molar value.

For one test, the target named is HIF PHD2 (Homo sapiens, UniProt Q9GZT9). Description: PHD2 inhibition assay (TR-FRET, VCB-Eu detection of hydroxylated P564-HIF1α peptide). In kind it is biochemical. Conditions: Table of PHD2 IC50 values of Example Compounds. Here is the method: Inhibition of HIF PHD2 activity was quantified utilizing the TR-FRET technology. HIF PHD2 catalyzes a hydroxyl modification on the proline residue of the P564-HIF1α peptide substrate (Biotin-[…] (SEQ ID NO: 7)) resulting in recognition and binding of the europylated Von Hippel-Lindau protein (pVHL), elongin B and elongin C heterotrimeric (VCB-Eu) complex.
Sequence of HIF PHD2 (Q9GZT9 whole entry): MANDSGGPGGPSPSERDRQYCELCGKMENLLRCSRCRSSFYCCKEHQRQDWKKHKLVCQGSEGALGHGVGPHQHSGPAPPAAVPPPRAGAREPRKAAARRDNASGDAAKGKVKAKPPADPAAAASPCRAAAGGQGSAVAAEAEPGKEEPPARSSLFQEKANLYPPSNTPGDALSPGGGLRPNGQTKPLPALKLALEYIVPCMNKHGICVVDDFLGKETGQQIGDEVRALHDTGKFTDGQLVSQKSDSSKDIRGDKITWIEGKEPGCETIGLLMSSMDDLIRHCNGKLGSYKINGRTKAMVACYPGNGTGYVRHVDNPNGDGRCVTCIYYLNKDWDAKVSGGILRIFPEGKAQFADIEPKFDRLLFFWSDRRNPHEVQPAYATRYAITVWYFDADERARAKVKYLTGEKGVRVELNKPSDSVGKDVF
The PHD2 inhibition assay was executed by addition of freshly dissolved FeCl2 to 178.57 μM (100 μM final concentration) in PHD2 Reaction Buffer containing 30 mM MES, pH 6, 10 mM NaCl, 0.25% Brij-35, 0.01% BSA, and 1% DMSO. 28 μL of the iron solution and 2 μL of inhibitor compounds serially diluted in 100% DMSO (5% DMSO final) were added to black polypropylene 96-well microtiter plates. To that, 10 μL of 10 nM PHD2 (2 nM final) was added to all wells of the plate except for the 8 wells of column 12 (LO control), and allowed to incubate at room temperature on the shaker for one hour. Column 6 was the HI control containing PHD2 enzyme and 5% DMSO vehicle, but no inhibitor compound. To initiate the PHD2 enzymatic reaction, 10 μL of a solution containing 500 nM P564-HIF1α peptide (100 nM final), 10 mM ascorbic acid (2 mM final), and 1.25 μM 2-oxoglutarate (α-ketoglutarate; 0.25 μM final) in PHD2 Reaction Buffer was added to all wells of the plate and allowed to incubate on the shaker at room temperature for one hour.
The reaction was terminated by addition of 25 μL TR-FRET Buffer (50 mM TRIS-HCl, pH 9, 100 mM NaCl, 0.05% BSA, and 0.5% Tween-20) containing 150 mM succinate (product inhibitor; 50 mM final), 75 nM streptavidin-APC (25 nM final), and 7.5 nM VCB-Eu (2.5 nM final). The TR-FRET detection reagents were placed on a shaker for 1 hour to reach binding equilibrium before reading on the Discovery platform (PerkinElmer). Europium is excited at 315 nm and phosphoresces at 615 nm with a large Stoke's shift. APC, in turn, emits at 655 nm upon excitation at 615 nm. The TR-FRET signal is measured as the ratio of the APC 655 nm signal divided by the internal europium reference 615 nm emission signal.
The POC (percentage of control) was determined by comparing the signal from hydroxylated peptide substrate in the enzyme reaction containing inhibitor compound with that from PHD2 enzyme with DMSO vehicle alone (HI control), and no enzyme (LO control). POC was calculated using the formula: % control (POC)=(cpd−average LO)/(average HI−average LO)*100. Data (consisting of POC and inhibitor concentration in […]) was fitted to a 4-parameter equation (y=A+((B−A)/(1+((x/C)^D))), where A is the minimum y (POC) value, B is the maximum y (POC), C is the x (cpd concentration) at the point of inflection and D is the slope factor) using a Levenburg-Marquardt non-linear regression algorithm.
Background: TR-FRET usually uses a lanthanide donor and a delayed reading to cut background.

The target in test [1] is T1, Collagen Prolyl Hydroxylase II (CPH2) (Homo sapiens, UniProt O15460).
T1 construct: made in house; host or cells: Trichoplusia ni insect cells (baculovirus, pFastBac1)
T1 sequence (O15460 22-533 isoform O15460-2 limits assumed): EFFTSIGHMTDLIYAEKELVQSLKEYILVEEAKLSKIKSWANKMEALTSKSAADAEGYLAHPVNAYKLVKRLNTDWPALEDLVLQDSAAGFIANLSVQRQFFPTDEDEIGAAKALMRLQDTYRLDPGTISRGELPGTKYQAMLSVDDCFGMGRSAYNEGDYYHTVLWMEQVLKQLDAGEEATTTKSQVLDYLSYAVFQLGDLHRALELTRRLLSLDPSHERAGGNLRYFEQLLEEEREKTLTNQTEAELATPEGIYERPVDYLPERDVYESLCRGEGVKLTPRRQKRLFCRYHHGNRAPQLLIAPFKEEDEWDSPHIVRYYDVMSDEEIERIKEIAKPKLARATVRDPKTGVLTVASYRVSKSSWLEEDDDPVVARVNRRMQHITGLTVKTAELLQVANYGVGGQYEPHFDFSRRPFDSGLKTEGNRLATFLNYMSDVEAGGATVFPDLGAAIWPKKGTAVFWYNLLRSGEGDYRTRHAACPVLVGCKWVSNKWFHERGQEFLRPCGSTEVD
T1 sequence (P07237 18-508 partner): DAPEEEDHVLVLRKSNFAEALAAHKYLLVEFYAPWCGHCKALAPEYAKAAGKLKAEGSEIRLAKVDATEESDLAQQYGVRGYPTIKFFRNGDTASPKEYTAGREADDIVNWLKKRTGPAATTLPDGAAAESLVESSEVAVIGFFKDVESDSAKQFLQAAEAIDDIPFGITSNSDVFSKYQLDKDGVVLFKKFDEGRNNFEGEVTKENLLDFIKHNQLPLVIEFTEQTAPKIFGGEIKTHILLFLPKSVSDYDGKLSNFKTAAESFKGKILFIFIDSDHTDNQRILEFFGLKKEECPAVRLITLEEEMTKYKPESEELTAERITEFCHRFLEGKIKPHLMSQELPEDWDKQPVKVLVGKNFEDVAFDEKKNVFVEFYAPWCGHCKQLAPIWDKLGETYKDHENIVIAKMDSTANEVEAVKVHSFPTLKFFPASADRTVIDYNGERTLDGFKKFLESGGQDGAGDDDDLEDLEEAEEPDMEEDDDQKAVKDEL
Description: Collagen prolyl hydroxylase II activity by radiometric HPLC measurement of 2-oxoglutarate conversion to succinic acid. The test is classed as biochemical.
Description: Assay Buffer consisted of Tris-HCl, pH 7.5, 0.2 mM DTT, and 0.5 mg/ml catalase. PPG10 peptide was dissolved in 0.25% acetic acid and denatured by boiling for 5 minutes then placed on ice for 5 minutes. The denatured PPG10 was then pre-mixed with 1 M ascorbate, prepared in water, and the mixture diluted with Assay Buffer to yield a working solution of 5× peptide and ascorbate. FeSO4 was freshly dissolved in water and diluted to a 2.8× concentration in Assay Buffer. Enzyme stocks were diluted to a 5× concentration in Assay Buffer. Example compounds plus FeSO4 solution were mixed, followed by addition of 5× enzyme solutions. After 10 minutes gentle mixing at room temperature, the 5× peptide solution was added. […] Final concentrations in the assay were: 50 mM Tris-HCl, pH 7.5, 0.2 mM DTT, 0.5 mg/mL catalase, 10 μM FeSO4, 100 μM PPG10, 50 μM 5-[^14C]-2-oxoglutarate (23-37 cpm/pmol), 1 mM ascorbate, and 4% DMSO. Reactions were gently mixed at room temperature for 1 hour and terminated by addition of an equal volume of 0.02 N H2SO4.
A portion of each terminated reaction was auto-injected into a Polypore H column (PerkinElmer, Waltham, Mass.) at a rate of 0.3 mL/min with 0.01 NH2SO4 as the mobile phase. The HPLC method employed exploits the difference in pKa of the 2-OG and SA carboxylates to chromatographically separate substrate from product at low pH on ion-exchange resin, as described by Cunliffe, et al (Biochem J., 240, 617-619 (1986)) and Kaule and Gunzler (Anal. Biochem., 184, 291-297 (1990)). An Agilent 1100 HPLC System with dual quaternary pumps, column switching valve, and dual columns was used to resolve product from substrate. The Agilent 1100 Multiple Wavelength Detector indicated UV absorption of the substrate and product peaks at 210 nm and a Beta-RAM Model 2 radiation detector with In-Flow 2:1 scintillation cocktail (IN/US Systems Inc.) enabled quantitation of the 2 radioactive peaks. Laura Lite software (IN/US, Tampa, Fla.) was used to collect and analyze radiometric data. […] To standardize across studies, 2-OG conversion was normalized to percent of control (POC) values using reactions that lacked enzyme or inhibitor as low and high controls, respectively. POC data was fitted to the 4-parameter logistic model (A+((B−A)/(1+((x/C)^D)))) using ActivityBase (IDBS, Alameda Calif.) where A is the minimum POC value, B is the maximum POC value, D is the slope factor, and C is compound concentration at the inflection point (IC50, micromolar).

Broadly, the pIC50 is the IC50 on a negative log10 scale, so that one unit is a factor of ten. A higher pIC50 goes with a low IC50. Consider `Cn1c(=O)c(C(=O)NCC(=O)O)c(O)c2sc(-c3ccc(Cl)cc3)nc21` [Example 1, N-((2-(4-chlorophenyl)-7-hydroxy-4-methyl-5-oxo-4,5-dihydro[1,3]thiazolo[4,5-b]pyridin-6-yl)carbonyl)glycine], for which, on HIF PHD2, the pIC50 was 7.33.

Take `Cc1nc2c(s1)c(O)c(C(=O)NCC(=O)O)c(=O)n2C` [Example 2, N-((7-hydroxy-2,4-dimethyl-5-oxo-4,5-dihydro[1,3]thiazolo[4,5-b]pyridin-6-yl)carbonyl)glycine]: the pIC50 at HIF PHD2 was 7.70.

On to `Cn1c(=O)c(C(=O)NCC(=O)O)c(O)c2sccc21` [Example 3, 2-(7-hydroxy-4-methyl-5-oxo-4,5-dihydrothieno[3,2-b]pyridine-6-carboxamido)acetic acid], for which the pIC50 against HIF PHD2 is 7.12; in test [1], 6.46.

Consider `Cc1csc2c(O)c(C(=O)NCC(=O)O)c(=O)n(C)c12` [Example 4, 2-(7-hydroxy-3,4-dimethyl-5-oxo-4,5-dihydrothieno[3,2-b]pyridine-6-carboxamido)acetic acid], for which the negative logarithm of the IC50 (pIC50) against HIF PHD2 is 7.62.

On to `Cn1c(=O)c(C(=O)NCC(=O)O)c(O)c2sc(-c3ccc(Cl)cc3)cc21` [Example 5, 2-(2-(4-chlorophenyl)-7-hydroxy-4-methyl-5-oxo-4,5-dihydrothieno[3,2-b]pyridine-6-carboxamido)acetic acid], for which the pIC50 on HIF PHD2 is 7.01.

With `Cn1c(=O)c(C(=O)NCC(=O)O)c(O)c2sc(Br)cc21` [Example 6, 2-(2-bromo-7-hydroxy-4-methyl-5-oxo-4,5-dihydrothieno[3,2-b]pyridine-6-carboxamido)acetic acid], the pIC50 is 8.14 at HIF PHD2 and 7.52 in test [1].

On HIF PHD2, `Cc1csc2c(O)c(C(=O)N[C@@H](C)C(=O)O)c(=O)n(C)c12` [Example 7, (S)-2-(7-hydroxy-3,4-dimethyl-5-oxo-4,5-dihydrothieno[3,2-b]pyridine-6-carboxamido)propanoic acid] gave a pIC50 of 6.91.

With `Cn1c(=O)c(C(=O)NCC(=O)O)c(O)c2sc(C(F)(F)F)c(-c3ccccc3)c21` [Example 8, 2-(7-hydroxy-4-methyl-5-oxo-3-phenyl-2-(trifluoromethyl)-4,5-dihydrothieno[3,2-b]pyridine-6-carboxamido)acetic acid], the negative logarithm of the IC50 (pIC50) against HIF PHD2 was 7.74.

In the case of `Cn1c(=O)c(C(=O)NCC(=O)O)c(O)c2sc3ccccc3c21` [Example 9, N-((4-hydroxy-1-methyl-2-oxo-1,2-dihydro[1]benzothieno[3,2-b]pyridin-3-yl)carbonyl)glycine], the pIC50 against HIF PHD2 is 7.82.

Consider `C[C@H](NC(=O)c1c(O)c2sc3ccccc3c2n(C)c1=O)C(=O)O` [Example 10, N-((4-hydroxy-1-methyl-2-oxo-1,2-dihydro[1]benzothieno[3,2-b]pyridin-3-yl)carbonyl)-L-alanine], for which the pIC50 against HIF PHD2 was 6.96.

On HIF PHD2, `Cn1c(=O)c(C(=O)NCC(=O)O)c(O)c2sc(-c3ccc(F)cc3)cc21` [Example 11, 2-(2-(4-fluorophenyl)-7-hydroxy-4-methyl-5-oxo-4,5-dihydrothieno[3,2-b]pyridine-6-carboxamido)acetic acid] had a negative logarithm of the IC50 (pIC50) of 7.82.

Compound `Cn1c(=O)c(C(=O)NCC(=O)O)c(O)c2sc(-c3cncnc3)cc21` [Example 12, 2-(7-hydroxy-4-methyl-5-oxo-2-(pyrimidin-5-yl)-4,5-dihydrothieno[3,2-b]pyridine-6-carboxamido)acetic acid] showed a pIC50 on HIF PHD2 of 8.08.

As to `Cc1ncccc1-c1cc2c(s1)c(O)c(C(=O)NCC(=O)O)c(=O)n2C` [Example 13, 2-(7-hydroxy-4-methyl-2-(2-methylpyridin-3-yl)-5-oxo-4,5-dihydrothieno[3,2-b]pyridine-6-carboxamido)acetic acid], the negative-log IC50 (pIC50) against HIF PHD2 was 7.80.

`Cc1ccsc1-c1cc2c(s1)c(O)c(C(=O)NCC(=O)O)c(=O)n2C` [Example 14, 2-(7-hydroxy-4-methyl-2-(3-methylthiophen-2-yl)-5-oxo-4,5-dihydrothieno[3,2-b]pyridine-6-carboxamido)acetic acid] showed a pIC50 on HIF PHD2 of 7.11.

In the case of `Cn1c(=O)c(C(=O)NCC(=O)O)c(O)c2sc(-c3ccccc3)cc21` [Example 15, 2-(7-hydroxy-4-methyl-5-oxo-2-phenyl-4,5-dihydrothieno[3,2-b]pyridine-6-carboxamido)acetic acid], the negative logarithm of the IC50 (pIC50) on HIF PHD2 is 7.68.

For the compound `Cc1c(Br)sc2c(O)c(C(=O)NCC(=O)O)c(=O)n(C)c12` [Example 16, 2-(2-bromo-7-hydroxy-3,4-dimethyl-5-oxo-4,5-dihydrothieno[3,2-b]pyridine-6-carboxamido)acetic acid], the negative-log IC50 (pIC50) on HIF PHD2 was 7.70.

Turning to `Cn1c(=O)c(C(=O)CCC(=O)O)c(O)c2sc(Br)cc21` [Example 17, 4-(2-bromo-7-hydroxy-4-methyl-5-oxo-4,5-dihydrothieno[3,2-b]pyridin-6-yl)-4-oxobutanoic acid], the negative-log IC50 (pIC50) against HIF PHD2 was 7.19; in test [1], 5.42.

`Cn1c(=O)c(C(=O)CCC(=O)O)c(O)c2sccc21` [Example 18, 4-(7-hydroxy-4-methyl-5-oxo-4,5-dihydrothieno[3,2-b]pyridin-6-yl)-4-oxobutanoic acid]: the negative-log IC50 (pIC50) at HIF PHD2 is 8.52; in test [1], 4.46.

The values above are taken from patent US8030346B2, “Heterocyclic quinolone derivatives that inhibit prolyl hydroxylase activity” (Amgen Inc., priority 2007, dated 2011).
